Columns and labels:
[1] = test system: PC3 cells transfected with the tripartite fusion protein; experiment: FACS analysis of annexin V staining; assay type: cell-based, human; conditions: 300 nM OHT for 72 hours, cells expressing GFP-TRAITS-ER
Method: (§1) FIGS. 16a-16c show the apoptosis induction by TRAITS activation. […] The GFP-TRAITS-ER protein is localized primarily in cytoplasm in the absence of OHT, as visualized under green fluorescent microscope. The fusion protein was translocated into nuclei 24 hours after treatment of the cells with 300 nM OHT and then condensed in the fragmented nuclei 48 hours after the OHT treatment. The condensed and fragmented nuclei of the OHT-treated PC3 cells were then visualized by Hoechst staining. […] The PC3 cells were cultured in the absence or presence of 300 nM OHT for 72 hours prior to FACS analysis. The figure represents one of the 3 different experiments.
(§2) Cell death assays flow cytometry analysis: In flow cytometry analysis, cells cultured under the indicated conditions were harvested for staining with the TACS™ Annexin V-Biotin apoptosis detection kit (R & D systems). Propidium iodide was used for nuclei staining and Cy5 was conjugated to Annexin V-biotin. Apoptosis of Annexin V-positive cells was analyzed by FACS. Hoechst 33342 (Molecular Probes) was used for nuclear condensate staining and DNA fragmentation assay.

[2] = test system: AT6.1 xenograft prostate tumor; experiment: AT6.1 prostatic xenograft tumor growth in nude mice; assay type: in vivo
Source text: The tamoxifen pellets were implanted at the time of AT6.1 cell injection. The error bars represent S.E.M. The tamoxifen inhibition of AT6.1 tumor growth was statistically significant (p<0.005) at every time point of tumor measurement. […] The loading of total RNA was visualized by methylene blue staining. FIG. 17c is the northern blot analysis of TRAITS expression in rat prostatic tissues and cancer cell lines. The loading of total RNA was visualized by methylene blue staining. […] Affinity purified anti-human TRAITS polyclonal antibody was used in immunostaining of radical prostatectomy specimens from 8 patients with advanced prostate cancer (Gleason-score 7 to −10). […] A typical TRAITS down-regulation was shown with 20× objective (left) and the boxed area shown at high magnification (middle). A parallel staining without primary antibody (right) was conducted as a control. Blue arrows with solid line point to benign epithelial cells whereas red arrows with broken line indicate cancerous cells.
Tumor growth: To determine their tumorigenicity, AT6.1 cells were injected subcutaneously (1×10^5 cells) into 4-6 week old male nu/nu mice (NCI). […] Tumor sizes were calculated using formula V=π×h (h^23a^2)/6, a=(L((+))W)/4 (Nature, 405:354-359) and the Student's t-test (two-tailed) was performed to analyze statistical significance using the SPSS 10.0 software (SPSS Inc., Chicago, Ill.).

PC3 cells [3] = experiment: Apoptosis induction by GFP fusion constructs transfected into PC3 cells; assay type: cell-based, human; conditions: for cells expressing the GFP fusion protein: 10 days in medium including 500 μg/ml geneticin (G418); for role of domain in apoptosis induction: domain mapping / deletion mutagenesis, GFP fusions
Method: as §1
(§3) Vector constructions and mutagenesis: The cDNAs of rat and human TRAITS were cloned into pEGFP C1, pEGFP N3, PM and pIRES2-EGFP(Clontech) by PCR. Deletion mutagenesis of TRAITS were generated by PCR and cloned into above first three vectors. The plasmids containing ER™ domain were kindly provided by G. Evan (UCSF, San Francisco). ER™ domain was cut with BamHI/EcoRI and recloned into pEGFP-TRAITS to generate a tripartite fusion protein. All constructions were verified by sequencing and transfected using Lipofectamine (Gibco), Super Fect reagent (Qiagen) or Fugene 6 (Roche). In stable transfection, 500 μg/ml geneticin (G418) was used for selection of positive clones.
Genomic structure and mutagenesis of TRAITS: TRAITS is composed of six exons (FIG. 18) which in humans encode respectively, 35 amino acid residues, 32 amino acid residues, 46 amino acid residues, 48 amino acid residues, 85 amino acid residues, and 14 amino acid residues (see FIG. 14a for exon junctions). In an effort to determine the role of individual domains, domain mapping was performed by fusing nucleic acids encoding GFP to nucleic acids encoding fragments of the TRAITS in pEGFPN3 vectors. The vectors was then used for transient and stable transfection of PC3 cells. The ability of the various constructs to induce apoptosis was determined.

PC3 cells [4] = experiment: Soft agar assay (anchorage-independent growth); assay type: cell-based, human; conditions: stable overexpression in PC3 sublines
Method: FIGS. 4A-4D show the effect of calreticulin overexpression on colony formation of PC3 cells in a soft agar assay, PC3 (FIG. 4A), Mock (FIG. 4B), Crt 35 (FIG. 4C) and Crt 59 (FIG. 4). The soft agar assay was conducted in 6-well plates. The bottom agar is 2 ml 0.6% noble agar containing 1×RPMI 1640 medium supplemented with 10% fetal bovine serum (FBS). After the preparation of bottom agar, 1 ml of 0.3% top agar containing 5,000 cells and 1×RPMI 1640 medium supplemented with 10% FBS was added to form the top layer. The assay for each PC3 subline was carried out in duplicate and was repeated at least 3 times.
Colonies with greater than 125 um in diameter were counted in the quantification. Error bars represent standard error means (SEM).
Soft agar assay: The soft agar assay was conducted in 6-well plates. The bottom agar is 2 ml 0.6% noble agar containing 1×RPMI 1640 medium supplemented with 10% FBS. After the preparation of bottom agar, 1 ml of 0.3% top agar containing 5,000 cells and 1×RPMI 1640 medium supplemented with 10% FBS was added to form the top layer. The assay for each PC3 subline was carried out in duplicate and was repeated at least 3 times.

PC3 cells [5] = experiment: Proliferation assay (cell numbers); assay type: cell-based, human; conditions: ectopic expression, stably transfected PC3 sublines, culture in 6-well plates 4-5 days
Source text: The cell numbers of the parental PC3, empty pcDNA3.1 vector transfected PC3 sublines M1 and M2, and pcDNA3.1-TID-1 transfected PC3 sublines 27, 41, and 44 were counted after culture in 6-well plates for 4 days.
The cell numbers of the parental PC3, empty pCMV-Tag vector transfected PC3 sublines fM1 and fM2, and pCMV-Tag-fTID-1 transfected PC3 sublines f33, f17, and f23 were counted after culture in 6-well plates for 5 days. The proliferation and soft agar assays are described in Methods of Example 3 below.
Proliferation assay: Cells were plated onto 6-well plates in triplicate at 50,000 cells/well and cultured in RPMI 1640 medium supplemented with 10% fetal bovine serum (FBS), and 1% penicillin/streptomycin. The cells were trypsinized and counted each day afterwards for a five-day time course. The data were plotted using the GraphPad Prism software. The error bars represent SEM and they are difficult to see when SEM is very small. The cell proliferation assay was repeated 3 times and the results were very reproducible.

[6] = test system: CAT reporter gene expression; experiment: Mammalian two-hybrid analysis, CAT reporter assay in NIH3T3 cells; assay type: cell-based
Method: A non-specific complex (*) in the presence of GST-TRAITS was also formed in the presence of GST only. Labeled free DNA (F) was also indicated. […] NIH3T3 cells were transiently transfected with empty vector (PM) or vectors expressing the full-length rat TRAITS (residues 1-262 of SEQ ID NO:14), its N-terminal (residues 1-113 of SEQ ID NO:14), or its C-terminal (residues 114-262 of SEQ ID NO:14) plus pG5CAT reporter and pSV-β-gal for normalization. Assays were performed after 24 hours of transfection. The fold activation of CAT reporter is shown with S.E.M. Assays were performed in triplicate in two separate experiments.
CAT reporter assays: CAT activities were assayed 24 hours after transfection. NIH3T3 cells were grown in 6-well plates and transfected using Superfect (Qiagen). For transient transfection, 2 μg of PM constructions, 2 μg of pSVβ-gal (internal control) and 2 μg of pG5CAT (Clontech) were used per well. The level of CAT protein in cell extracts was determined using a CAT ELASA kit (Roche) according to the manufacturer. Protein concentration was measured using a Dc protein Assay kit (Bio-Rad). β-Galactosidase activity was measured by incubating with ONPG (o-nitrophenyl-β-D-galactopyranoside) solution. Data are reported as means ±S.E.M. of two separate experiments performed in triplicate.

[7] = test system: human prostate cancer cell lines (LNCaP, PC3, DU145 and TSU), rat Dunning prostate tumor cell lines, NIH3T3 and Hela; experiment: Cell death after transient transfection of TRAITS expression vectors; assay type: cell-based
Source text: as §3, §2
To further characterize the function of TRAITS, green fluorescent protein (GFP) was tagged to TRAITS at its N-terminal or C-terminal ends using pEGFP C1 and pEGFP N3 vector, respectively (Clontech). […]

ventral prostate = experiment: C3(I)-TID-1 transgenic mice; assay type: in vivo, mouse; conditions: transgenic vs non-transgenic littermates
Source text: To study the role of TRAITS protein in the prostate in vivo, an expression vector, C3 (I)-TID-1, was generated that expresses TRAITS under the control of the prostate C3(I) promoter [Zhang et al., Prostate, 32:16-26 (1997)]. The C3(I) promoter is androgen-dependent and active only in the ventral prostate and testis. Two transgenic mouse lines were identified by PCR amplification of the tail genomic DNA using primers specific for the TRAITS transgene. […] The C3(I)-TID-1 transgenic mice are fertile.

LNCaP = experiment: Stable transfection of LNCaP with CMV-fTID-1; assay type: cell-based, human; conditions: two different experiments
Source text: The CMV-fTID-1 expression vector was also transfected into LNCaP, an androgen-responsive human prostate cancer cell line [Horoszewicz et al., Cancer Research 43:1809-18 (1983)], in two different experiments. […] The expression of the endogenous TID-1 gene was also not detected in the rat Dunning tumor cell lines (FIGS. 10A-10B) and various human prostate cancer cell lines including LNCaP, PC3, DU145, and TSU cells. […] Stable expression was observed using a CMV promoter-based expression vector. Clonal variations of stably transfected cells can be minimized by assaying multiple, (e.g., three) independent stably transfected sublines.

## 4-hydroxytamoxifen [OHT]
[1]
  apoptotic cells (annexin V): 60.7%

## CC/C(=C(\c1ccccc1)c1ccc(OCCN(C)C)cc1)c1ccccc1 [tamoxifen]
[2]; tamoxifen administration, parallel experiments
  growth of xenograft tumors from parental or GFP-ER transfected AT6.1 cells: no detectable influence
[2]; tamoxifen pellets implanted at cell injection, p<0.005
  growth of xenograft tumors from AT6.1 sublines expressing GFP-TRAITS-ER: significantly inhibited

## EAF1: protein with sequence homology to TRAITS, SEQ ID NO:20; tested as GFP fusion
PC3 cells [3]; GFP fusion proteins from pEGFP N3, human and mouse
  cell death: cause cell death

## N-terminal region of TRAITS: approximately amino acids 1-113 of TID-1, fused to GFP
PC3 cells [3]
  cells expressing the GFP fusion protein: none of the cells were found to express the N-terminal fusion protein
  role of domain in apoptosis induction: necessary and sufficient for inducing apoptosis

## TID-1: novel testosterone regulated apoptosis inducer and tumor suppressor; transcription factor, SEQ ID NOs:14 (rat), 16 (mouse), 18 (human)
PC3 cells [4]
  colony formation in soft agar: inhibition of the size and number of colonies
PC3 cells [5]
  reduction in cell numbers: 2 fold
[6]; 24 hours after transfection
  transactivation of CAT reporter gene expression: more than 40 fold
[7]
  programmed cell death phenotype of transfected cells: efficiently induced chromatin condensation and cell death
Ventral prostate
  enhancement of epithelial cell number per unit area in the ventral prostate: 2-3 fold

## exon III: TRAITS fragment corresponding to amino acids 68-113 of SEQ ID NO:18, fused to GFP
PC3 cells [3]
  role of domain in apoptosis induction: both necessary and sufficient to induce apoptosis

## fTID-1: FLAG tagged TID-1 protein expressed from pCMV-Tag-fTID-1
PC3 cells [5]
  reduction in cell numbers: 2 fold
LNCaP
  recovery of clones expressing fTID-1: no LNCaP clones expressing fTID-1 were found

B1: C-terminal region: remaining approximately 147-149 amino acids of TID-1 containing the transactivation domain (protein)
chain: GEGSSKIQCRLEQQQQQMWNPPRTSNLVQHSPSEDKLSPTSLMDDIERELKAEASLMDQMSSCDSSSDSRSSSSSSSEDSSSDSEDDDRSSPSGPRRYSSEHPSVSAGPQYRTSDADTTCNRLYDNSALLMSTLRSDLQLSESDSDSED
[6]; deletion of the N-terminal region
  transactivation relative to full-length (deletion mutagenesis): enhance the transactivation
PC3 cells [3]
  cells expressing the GFP fusion protein: many of the cells expressed the C-terminal fusion protein
  role of domain in apoptosis induction: not required for TRAITS to induce apoptosis

From US6780984B2, “Method for prognosing cancer and the proteins involved” (Northwestern University, priority 2000, dated 2004)
